Measured values reported in US7754718B2 (priority 2004, dated 2010).
Where two headings read alike, the source gives them in different places.

Experiments:
[1] = tested on: wt (adr) HBV; experiment: Extracellular HBV DNA in W10 cells, real-time PCR; format: cell-based; conditions: Hepatitis B virus, 144 h, 6-day treatment, HBV DNA in medium by real-time PCR
Description: (§1) Hep.G2.2.15 is a hepatoblastoma cell line stably transfected with a HBV genome (ayw strain) (Sells et al., 1987, Proc Natl Acad Sci USA. 84 (4):1005-1009). W10, a HepG2 cell line, was transfected with an adr HBV strain (Fu et al., 2000, Antimicrob Agents Chemother 44 (12): 3402-3407; Fu et al., 1999, Biochem Pharmacol. 57 (12): 1351-1359). These cell lines were used to assess the antiviral activity of helioxanthin and 22. Various concentrations of the drugs in minimal essential medium with Earle's salts (MEME) containing 10% fetal bovine serum (FBS) were tested in 6-day-old cultures. The drugs were left in the culture medium for 3 days, then the medium was removed and fresh medium containing the same concentration of the drugs was added. At the end of another 3-day period, the culture medium and cells were harvested to measure the HBV replication level. The Lamivudine resistant cell line DM2 (Fu et al., 2000, Antimicrob Agents Chemother 44 (12): 3402-3407) is also a hepatoblastoma cell line stably transfected with HBV genome (adr strain) which contains the L526M/M550V double mutation. The culture conditions of DM2 are the same as that of HepG.2.2.15.
(§2) Quantitative real-time PCR was used to determine the extracellular HBV copy number in the medium of DM2 cells with and without drug treatment. […] Quantification of the copy number was determined by comparing the sample amount to a standard curve generated in each run. […]
(§3) W10 and DM2 cells (Fu et al., 2000, Antimicrob Agents Chemother 44 (12): 3402-3407), were used to evaluate the effects of these two compounds on wt HBV (adr strain) and its lamivudine-resistant HBV. […] After a 6-day treatment, the amount of HBV DNA, which was secreted into the medium, was evaluated using real-time PCR (FIG. 3). […] The real-time PCR method was validated by comparing the results of intracellular HBV DNA levels obtained from the Southern blot hybridization analysis to the results from real-time PCR that measured HBV DNA copies in the HepG2.2.15 medium with or without treatment of lamivudine. […]

[2] = tested on: L526M/M550V (adr) HBV; experiment: Extracellular HBV DNA in lamivudine-resistant DM2 cells, real-time PCR; format: cell-based; conditions: Hepatitis B virus, 144 h, read-out: EC50 (μM) L526M/M550V (adr)
Description: as §1, §2, §3

[3] = tested on: HBV 3.5 kb, 2.4/2.1 kb transcripts; experiment: HBV RNA in HepG2.2.15 cells, Northern blot hybridization; format: cell-based, Hepatitis B virus; conditions: for EC50: Hepatitis B virus, 144 h, read-out: EC50 for the 3.5 kb transcript
Protocol: Southern blot hybridization was used to measure the effects of compounds on HBV DNA. Total DNA from cells was extracted using Dneasy Tissue kit (Qiagen Inc. Valencia, Calif.) and separated on a 0.8% agarose gel. Separated DNA was transferred to a Hybond-N+membrane (Amersham Pharmacia Biotech Inc. Piscataway, N.J.). Inhibition of viral DNA replication was assessed by comparison of the replicative HBV DNA from drug-treated versus untreated cultures using hybridization of the membrane with a [α-^32P] dCTP labeled whole HBV DNA probe followed by autoradiography. Quantitative densitometry was performed on a Molecular Dynamics Densitometer (Amersham Pharmacia Biotech Inc. Piscataway, N.J.) using ImageQuaNT image analysis software. The integrated HBV genome was used as the internal control to normalize the amount of DNA loaded. Northern blot hybridization was used to measure the effects of the compounds on HBV RNA. Total intracellular RNA was extracted from cells using Rneasy kit (Qiagen Inc. Valencia, Calif.). RNA was separated in a 1.2% formaldehyde agarose gel and transferred to a Hybond-N+ membrane (Amersham Pharmacia Biotech Inc. Piscataway, N.J.). The membrane was hybridized with the same probe mentioned above at 65° C. followed by autoradiography. GAPDH RNA level was used as an internal control to normalize the amount of RNA loaded. The decrease of HBV core protein expression was assessed by western blot. A cellular crude extract of […] cells was separated on a 12% SDS-PAGE gel and transferred onto a nitrocellulose membrane (Bio-rad Laboratories, Hercules, Calif.). Anti-HBV core antibody (DAKO Corp. Carpinteria, Calif.) and anti rabbit IgG secondary antibody (Sigma. St. Louis, Mo.) were added. Actin protein level was used as the internal control.
Since helioxanthin and its derivatives are a unique class of chemical with anti-HBV activity, the mechanism of HBV inhibition was examined by first assessing their impact on HBV mRNA. The HepG2.2.15 cells treated with these two drugs for 6 days, then a Northern blot analysis on the total cellular RNA was performed with a HBV specific [α-^32P] dCTP labeled probe. […] Lamivudine had no effect on HBV RNA level.

[4] = HepG2.2.15 cells, 6 days, Northern blot

SMILES | EC50 [1] [µM] | EC50 [2] [µM] | effect on HBV 3.5 kb, 2.4/2.1 kb transcripts (HBV RNA level) ([3]; HepG2.2.15 cells, 6 days, Northern blot, listed as helioxanthin) | EC50 [3, 4] [nM] | effect on HBV 3.5 kb, 2.4/2.1 kb transcripts (HBV RNA level) [3] | effect on HBV 3.5 kb, 2.4/2.1 kb transcripts (HBV RNA level) [3, 4]
O=C1OCc2c1cc1ccc3c(c1c2-c1ccc2c(c1)OCO2)OCO3 [Compound 2, 10-Benzo[1,3]dioxol-5-yl-9H-furo[3′,4′:6,7]naphtho[1,2-d][1,3]dioxol-7-one, reference compound] | 0.4 | 0.1 | decreased 3.5 kb, 2.4/2.1 kb HBV transcripts in a dose-dependent manner | 90 |  | 
Nc1ccn([C@@H]2CS[C@H](CO)O2)c(=O)n1 [Compound 3TC, (−)-(2R,5S)-1-[2-(hydroxymethyl)oxathiolan-5-yl]cytosine] | 0.02 ± 0.03 | > 3 |  |  | no effect | 
COc1ccc(-c2c3c(cc4ccc5c(c24)OCO5)C(=O)NC3)cc1OC [Compound 22, 10-(3,4-Dimethoxy-phenyl)-8,9-dihydro-1,3-dioxa-8-aza-dicyclopenta[a,g]naphthalen-7-one] | 0.004 | 0.0003 |  | 1000 |  | decreased 3.5 kb, 2.4/2.1 kb HBV transcripts in a dose-dependent manner
